Series [1] is described as follows: Stability in acidic medium, monitored by HPLC. The format is physicochemical. To be noted: 0.1 N aq. HCl/MeOH (2/1 v/v), room temperature. The protocol: A sample of a test compound (1.2 mg) was dissolved in 0.1 N aq. HCl/MeOH (2/1 v/v, 4 mL) at room temperature. The degradation of the test compound was monitored by HPLC. The percentage of the test compound remaining was calculated using the peak area % in HPLC.

For a further series, the system named is diabetic mice. To be noted: cited from earlier work.
Another series concerns neurons. To be noted: neurons; cited from earlier work.
Series [2] deals with rat streptozotocin induced diabetes model for painful diabetic neuropathy. Description: Streptozotocin-induced rat model of painful diabetic neuropathy, Von Frey measurement for allodynia. It is filed as in vivo. To be noted: STZ 60 mg/kg IV, oral QD dosing started on Day 10. How it is done:
A streptozotocin-induced rat model was used to test the effectiveness of KU-596 (T0) and several of the instant compounds in a model of painful diabetic neuropathy. The study rats were allowed to accliminate to the Von Frey apparatus for one day prior to the initial Von Frey measurement. A baseline Von Frey measurement, a body weight measurement, and blood glucose level measurements were conducted one day before the intravenous administration of streptozotocin to induce diabetes. […] Each of the animals in a treatment group was dosed with either the vehicle or a therapeutic agent orally. Treatment was continued until euthanasia approximately one to two weeks later.
Streptozotocin was injected into rats to induce diabetes after a baseline Von Frey measurement for allodynia was collected. Oral administration of each test drug (Compound T0 (KU-596), FIG. 1A; Compound T2, FIG. 1B, and Compound T1, FIG. 1C) was started on Day 10 after another Von Frey measurement.

[3] abbreviates: 22 hours (footnote *, printed in the 24 h line).

As for `CO[C@@H]1[C@@H](O)[C@@H](O)[C@H](Oc2ccc(CCNC(C)=O)c(-c3cccc(F)c3)c2)OC1(C)C` [T0, reference compound], the “percentage of test compound remaining (HPLC peak area %)” value was determined as 100.0% in series [1] (0 h); 96.7 ± 1.4% in series [1] (4 h); 93.4 ± 1.7% in series [1] (8 h); 90.5 ± 2.3% in series [1] (12 h); 87.3 ± 2.9% in series [1] (16 h); 83.9 ± 4.1% in series [1] (20 h). For the same compound, the “percentage of test compound remaining (HPLC peak area %)” value in series [1] (24 h) is on record as 81.8 ± 4.2%.
Consider `CO[C@@H]1[C@@H](O)[C@@H](O)[C@H](Oc2ccc3cc(NC(C)=O)c(=O)oc3c2C)OC1(C)C` [KU-32], for which the “effect on symptoms of DPN / neuropathy in diabetic mice” value in the series with diabetic mice is listed as “significant activity in reversing established symptoms of DPN in diabetic mice”. For the same compound, the “effect on mitochondrial function / bioenergetics” value in the series with neurons is recorded as “improve mitochondrial bioenergetics”.
`CC(=O)NCCc1ccc(O[C@@H]2O[C@@H](C)[C@H](O)[C@@H](O)[C@H]2O)cc1-c1cccc(F)c1` [T1]: the “activity in model of painful diabetic neuropathy relative to T0 (KU-596), Von Frey measurement” value in series [2] is recorded as “comparable to slightly better activity”. The “percentage of test compound remaining (HPLC peak area %)” value in series [1] (0 h) amounted to 100.0%; in series [1] (4 h), 101.1%; in series [1] (8 h), 100.1%; in series [1] (12 h) it was 100.5%; in series [1] (16 h), 100.4%; in series [1] (20 h), 100.3%. Also, in series [1] (24 h), the “percentage of test compound remaining (HPLC peak area %)” value is 100.4%.
For `CO[C@@H]1[C@@H](O)[C@@H](O)[C@H](Oc2ccc(C(F)(F)CNC(C)=O)c(-c3cccc(F)c3)c2)OC1(C)C` [T12], the “percentage of test compound remaining (HPLC peak area %)” value turned out to be 100.0% in series [1] (0 h); 97.2% in series [1] (4 h); 95.5% in series [1] (8 h); 93.7% in series [1] (12 h); 92.3% in series [1] (16 h); 90.6% in series [1] (20 h). Also, in series [1] (setting [3]), the “percentage of test compound remaining (HPLC peak area %)” value is on record as 89.9* %.
As for `CO[C@@H]1[C@@H](O)[C@@H](O)[C@H](Oc2ccc(CCNC(C)=O)c(-c3cccc(F)c3)c2)O[C@H]1C` [T2], in series [2], the “activity in model of painful diabetic neuropathy relative to T0 (KU-596), Von Frey measurement” value is “comparable to slightly better activity”. Further, the “percentage of test compound remaining (HPLC peak area %)” value in series [1] (0 h) came to 100.0%; in series [1] (4 h), 99.9%; in series [1] (8 h), 99.5%; in series [1] (12 h), 99.8%; in series [1] (16 h) it was 100.2%; in series [1] (20 h), 99.9%. Also, the “percentage of test compound remaining (HPLC peak area %)” value in series [1] (setting [3]) is 100.2* %.
For the compound `CC(=O)NCCc1ccc(O[C@H]2O[C@H](C)[C@@H](O)[C@H](O)[C@@H]2O)cc1-c1cccc(F)c1` [T54], the “percentage of test compound remaining (HPLC peak area %)” value in series [1] (0 h) worked out at 100.0%; in series [1] (4 h), 100.4%; in series [1] (8 h), 100.2%; in series [1] (12 h), 101.0%; in series [1] (16 h), 101.1%; in series [1] (20 h), 101.3%. For the same compound, the “percentage of test compound remaining (HPLC peak area %)” value in series [1] (24 h) is on record as 101.2%.
In the case of `CC(=O)NCCc1ccc(O[C@@H]2OC(C)(C)[C@H](OCc3ccccc3)[C@@H](O)[C@H]2O)cc1-c1cccc(F)c1` [T7], the “percentage of test compound remaining (HPLC peak area %)” value is reported as 100.0% in series [1] (0 h); 93.3% in series [1] (4 h); 85.6% in series [1] (8 h); 78.8% in series [1] (12 h); 71.5% in series [1] (16 h); 65.5% in series [1] (20 h). Further, in series [1] (24 h), the “percentage of test compound remaining (HPLC peak area %)” value is recorded as 61.7%.
On to `CNC(=O)CCc1ccc(O[C@@H]2OC(C)(C)[C@H](OC)[C@@H](O)[C@H]2O)cc1-c1cccc(F)c1` [T57], for which the “percentage of test compound remaining (HPLC peak area %)” value in series [1] (0 h) is 100.0%; in series [1] (4 h), 97.9%; in series [1] (8 h), 93.4%; in series [1] (12 h) it was 90.3%; in series [1] (16 h), 86.4%; in series [1] (20 h) it was 82.5%. The “percentage of test compound remaining (HPLC peak area %)” value in series [1] (24 h) came to 79.3%.
For the compound `CC(=O)NCCc1ccc(O[C@@H]2O[C@@H](C)[C@@H](O)[C@@H](O)[C@@H]2O)cc1-c1cccc(F)c1` [T15], the “percentage of test compound remaining (HPLC peak area %)” value was found to be 100.0% in series [1] (0 h); 99.9% in series [1] (4 h); 99.0% in series [1] (8 h); 98.5% in series [1] (12 h); 97.9% in series [1] (16 h); 97.0% in series [1] (20 h). Besides, in series [1] (24 h), the “percentage of test compound remaining (HPLC peak area %)” value is listed as 96.5%.
Regarding `CO[C@@H]1[C@@H](O)[C@@H](O)[C@@H](Oc2ccc(CCNC(C)=O)c(-c3cccc(F)c3)c2)OC1(C)C` [T20], the “percentage of test compound remaining (HPLC peak area %)” value in series [1] (0 h) came out at 100.0%; in series [1] (4 h) it was 97.7%; in series [1] (8 h), 94.8%; in series [1] (12 h) it was 91.9%; in series [1] (16 h), 89.2%; in series [1] (20 h) it was 86.8%. The “percentage of test compound remaining (HPLC peak area %)” value in series [1] (24 h) turned out to be 84.4%.
As for `CNC(=O)CCc1ccc(O[C@@H]2O[C@@H](C)[C@H](OC)[C@@H](O)[C@H]2O)cc1-c1cccc(F)c1` [T11], the “percentage of test compound remaining (HPLC peak area %)” value in series [1] (0 h) is 100.0%; in series [1] (4 h) it was 100.2%; in series [1] (8 h), 100.3%; in series [1] (12 h), 100.6%; in series [1] (16 h) it was 100.9%; in series [1] (20 h), 101.4%. In addition, the “percentage of test compound remaining (HPLC peak area %)” value in series [1] (24 h) was 102.1%.
As to `CO[C@@H]1[C@@H](O)[C@@H](O)[C@H](Oc2ccc(C(F)(F)CNC(C)=O)c(-c3cccc(F)c3)c2)O[C@H]1C` [T13], the “percentage of test compound remaining (HPLC peak area %)” value is recorded as 100.0% in series [1] (0 h); 99.3% in series [1] (4 h); 99.7% in series [1] (8 h); 100.3% in series [1] (12 h); 99.5% in series [1] (16 h); 99.7% in series [1] (20 h). Further, the “percentage of test compound remaining (HPLC peak area %)” value in series [1] (24 h) came out at 99.3%.
Turning to `CC(=O)NCCc1ccc(O[C@@H]2O[C@@H](CO)[C@H](O)[C@@H](O)[C@H]2O)cc1-c1cccc(F)c1` [T60], the “percentage of test compound remaining (HPLC peak area %)” value in series [1] (0 h) was found to be 100.0%; in series [1] (4 h) it was 97.6%; in series [1] (8 h), 97.6%; in series [1] (12 h), 97.5%; in series [1] (16 h) it was 97.2%; in series [1] (20 h) it was 98.0%. Also, the “percentage of test compound remaining (HPLC peak area %)” value in series [1] (24 h) is on record as 97.4%.
As for `CC(=O)NCCc1ccc(O[C@@H]2OC(C)(C)[C@H](OC(F)F)[C@@H](O)[C@H]2O)cc1-c1cccc(F)c1` [T6], the “percentage of test compound remaining (HPLC peak area %)” value in series [1] (0 h) is listed as 100.0%; in series [1] (4 h), 99.1%; in series [1] (8 h), 99.0%; in series [1] (12 h) it was 97.6%; in series [1] (16 h), 96.6%; in series [1] (20 h) it was 96.0%. For the same compound, the “percentage of test compound remaining (HPLC peak area %)” value in series [1] (24 h) is reported as 95.7%.
Turning to `CC(=O)NCCc1ccc(O[C@@H]2OC(C)(C)[C@H](O)[C@@H](O)[C@H]2O)cc1-c1cccc(F)c1` [T3], the “percentage of test compound remaining (HPLC peak area %)” value in series [1] (0 h) worked out at 100.0%; in series [1] (4 h), 98.1%; in series [1] (8 h), 96.1%; in series [1] (12 h) it was 94.1%; in series [1] (16 h) it was 92.2%; in series [1] (20 h), 90.2%. The “percentage of test compound remaining (HPLC peak area %)” value in series [1] (24 h) was found to be 88.3%.

The record behind these values is patent publication US11827664B2, “Biaryl amides with modified sugar groups for treatment of diseases associated with heat shock protein pathway” (REATA PHARMACEUTICALS, INC., priority 2018, dated 2023).
